Several values for one entry are separate records, joined by “and”; a condition that tells them apart may be missing. Equal entries are not always repeated. Where two headings read alike, the source gives them in different places.
What was measured:
5-HT7 = 5-HT7 (Homo sapiens, UniProt P34969); experiment: 5-HT receptor activity panel (Table 3); assay type: cell-based
5-HT5A = 5-HT5A (Homo sapiens, UniProt P47898); experiment: 5-HT receptor activity panel (Table 3); assay type: cell-based; conditions: Table 3
[1] = plasma and brain PK in mice; assay type: in vivo; conditions: mouse; for Kp: brain; for clearance: read-out: Cltot (converted); for half-life: read-out: T1/2 Vz (converted); for Vd: read-out: Vz
Description: (§1) Table 7a and Table 7b summarize, among other things, the observed plasma and Brain P K properties in animals, and the observed plasma and Brain P K properties predicted in humans, for compound 109 in Table 7a and compound 93 for Table 7b: […]

mice = experiment: head-twitch response (HTR) in mice; assay type: in vivo, male C57BL/6J mice; conditions: for ED50: Mus musculus
Experimental: As used herein and unless otherwise specified, the term “HTR” refers to head-twitch response, which is a measurement of 5-HT2A activation in vivo.
As used herein and unless otherwise specified, the term “mice” refers to male C57BL/6J mice (6-8 weeks old).
HTR was assessed using a head-mounted neodymium magnet and a magnetometer detection coil, as described in Halberstadt et al., Psychopharmacology (Berl.), 2013, 227(4): 727-739. Table 8 below summarizes the ED50 in head twitch in mice of various compounds disclosed herein as compared to psilocybin. FIG. 3 illustrates the HTR relative to dose for compound 109: […]

5-HT1A = target: T1, 5-HT1A (Homo sapiens, UniProt P08908); experiment: 5-HT receptor activity panel (Table 3); assay type: cell-based; conditions: Table 3
T1 sequence (P08908 1-422): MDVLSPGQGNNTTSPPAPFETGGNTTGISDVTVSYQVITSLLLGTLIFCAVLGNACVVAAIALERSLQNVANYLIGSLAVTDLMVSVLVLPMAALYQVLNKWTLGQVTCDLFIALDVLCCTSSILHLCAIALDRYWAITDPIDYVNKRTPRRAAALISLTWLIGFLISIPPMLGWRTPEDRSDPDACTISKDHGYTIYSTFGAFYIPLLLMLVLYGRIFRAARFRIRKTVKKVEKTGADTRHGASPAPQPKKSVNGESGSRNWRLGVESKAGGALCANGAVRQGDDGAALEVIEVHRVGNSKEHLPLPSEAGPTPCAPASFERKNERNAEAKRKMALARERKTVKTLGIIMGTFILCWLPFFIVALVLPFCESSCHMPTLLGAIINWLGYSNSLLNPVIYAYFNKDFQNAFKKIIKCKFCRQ

5-HT1E = 5-HT1E (Homo sapiens, UniProt P28566); experiment: 5-HT receptor activity panel (Table 3); assay type: cell-based
[2] = target: T2, human ether-a-go-go-related gene (hERG) K+ channel (Homo sapiens, UniProt Q12809); experiment: Eurofins hERG Qube APC Assay; assay type: cell-based; conditions: for IC50 (hERG)/EC50 (5-HT2A) ratio: Table 4
T2 construct: Eurofins
Description: As used herein and unless otherwise specified, the term “hERG risk” refers to the risk of a compound potentially inhibiting the human ether-a-go-go-related gene (hERG) K^+ channel, thereby leading to QT prolongation.
As a result of, many compounds disclosed in Table 1 and Table 2 were screened for the potential of “hERG risk” using pharmacological assays (e.g. Eurofins™ hERG Qube APC Assay). […].

[3] = in vitro hepatocyte clearance, dog; assay type: in vitro ADME; conditions: for hepatocyte CLint / half-life: Dog hepatocytes; for hepatocyte CLint: read-out: In vitro Clint (μL/min/10^6 cells); for half-life: read-out: In vitro T1/2; for CLint scaled: dog, hepatocytes, read-out: Scale-up Clint
Experimental: (§2) Additional experimentation was performed on compound 109. Table 6 summarizes, among other things, the anticipated hepatic clearance of compound 109 in various species, as specified in Table 6 and as determined by calculating the in vitro hepatocyte clearance over time and scaling such rate with such species' hepatocyte count and the anticipated liver blood flow rate in such species.

hepatocyte [4] = experiment: in vitro hepatocyte clearance, dog; assay type: in vitro ADME; conditions: Dog
Experimental: as §2

5-HT1B = 5-HT1B (Homo sapiens, UniProt P28222); experiment: 5-HT receptor activity panel (Table 3); assay type: cell-based; conditions: Table 3
plasma PK in dog = assay type: in vivo; conditions: for clearance / half-life / Vd: dog; for clearance: read-out: Cltot (converted); for half-life: read-out: T1/2 Vz (converted); for Vd: read-out: Vz
Description: as §1

5-HT6 = 5-HT6 (Homo sapiens, UniProt P50406); experiment: 5-HT receptor activity panel (Table 3); assay type: cell-based
[5] = plasma and brain PK in rat; assay type: in vivo; conditions: for Kp: brain; for clearance: read-out: Cltot (converted); for half-life: read-out: T1/2 Vz (converted); for Vd: read-out: Vz
Description: as §1

[6] = in vitro hepatocyte clearance, mouse; assay type: in vitro ADME; conditions: Mouse hepatocytes; for hepatocyte CLint: read-out: In vitro Clint (μL/min/10^6 cells); for half-life: read-out: In vitro T1/2; for CLint scaled: read-out: Scale-up Clint
Experimental: as §2

hepatocyte [7] = experiment: in vitro hepatocyte clearance, mouse; assay type: in vitro ADME; conditions: Mouse
Experimental: as §2

5-HT2C receptor = target: T3, 5-HT2C receptor (Homo sapiens, UniProt P28335); experiment: cell-based; assay type: cell-based; conditions: for 5-HT2C BRET Eff %: normalized to % 5-HT stimulation
T3 construct: expressed in transfected cells; host or cells: HEK293T
T3 sequence (P28335 33-458): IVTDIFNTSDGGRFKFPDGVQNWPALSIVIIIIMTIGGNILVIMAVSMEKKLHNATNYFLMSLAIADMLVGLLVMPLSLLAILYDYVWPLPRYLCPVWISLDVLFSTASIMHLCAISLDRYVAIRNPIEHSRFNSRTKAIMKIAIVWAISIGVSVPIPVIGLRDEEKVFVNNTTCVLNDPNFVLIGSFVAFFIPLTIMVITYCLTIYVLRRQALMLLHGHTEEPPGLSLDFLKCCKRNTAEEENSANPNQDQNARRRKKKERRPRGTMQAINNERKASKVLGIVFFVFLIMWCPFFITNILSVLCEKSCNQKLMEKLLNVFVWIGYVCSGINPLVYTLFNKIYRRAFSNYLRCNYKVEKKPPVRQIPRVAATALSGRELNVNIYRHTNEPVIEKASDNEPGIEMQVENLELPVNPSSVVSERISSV

[8] = Table 2, at least three replicate trials, read-out: 5-HT2C BRET EC50
[9] = Table 3 panel, read-out: 5-HT2C EC50

T2 sequence (Q12809 whole entry): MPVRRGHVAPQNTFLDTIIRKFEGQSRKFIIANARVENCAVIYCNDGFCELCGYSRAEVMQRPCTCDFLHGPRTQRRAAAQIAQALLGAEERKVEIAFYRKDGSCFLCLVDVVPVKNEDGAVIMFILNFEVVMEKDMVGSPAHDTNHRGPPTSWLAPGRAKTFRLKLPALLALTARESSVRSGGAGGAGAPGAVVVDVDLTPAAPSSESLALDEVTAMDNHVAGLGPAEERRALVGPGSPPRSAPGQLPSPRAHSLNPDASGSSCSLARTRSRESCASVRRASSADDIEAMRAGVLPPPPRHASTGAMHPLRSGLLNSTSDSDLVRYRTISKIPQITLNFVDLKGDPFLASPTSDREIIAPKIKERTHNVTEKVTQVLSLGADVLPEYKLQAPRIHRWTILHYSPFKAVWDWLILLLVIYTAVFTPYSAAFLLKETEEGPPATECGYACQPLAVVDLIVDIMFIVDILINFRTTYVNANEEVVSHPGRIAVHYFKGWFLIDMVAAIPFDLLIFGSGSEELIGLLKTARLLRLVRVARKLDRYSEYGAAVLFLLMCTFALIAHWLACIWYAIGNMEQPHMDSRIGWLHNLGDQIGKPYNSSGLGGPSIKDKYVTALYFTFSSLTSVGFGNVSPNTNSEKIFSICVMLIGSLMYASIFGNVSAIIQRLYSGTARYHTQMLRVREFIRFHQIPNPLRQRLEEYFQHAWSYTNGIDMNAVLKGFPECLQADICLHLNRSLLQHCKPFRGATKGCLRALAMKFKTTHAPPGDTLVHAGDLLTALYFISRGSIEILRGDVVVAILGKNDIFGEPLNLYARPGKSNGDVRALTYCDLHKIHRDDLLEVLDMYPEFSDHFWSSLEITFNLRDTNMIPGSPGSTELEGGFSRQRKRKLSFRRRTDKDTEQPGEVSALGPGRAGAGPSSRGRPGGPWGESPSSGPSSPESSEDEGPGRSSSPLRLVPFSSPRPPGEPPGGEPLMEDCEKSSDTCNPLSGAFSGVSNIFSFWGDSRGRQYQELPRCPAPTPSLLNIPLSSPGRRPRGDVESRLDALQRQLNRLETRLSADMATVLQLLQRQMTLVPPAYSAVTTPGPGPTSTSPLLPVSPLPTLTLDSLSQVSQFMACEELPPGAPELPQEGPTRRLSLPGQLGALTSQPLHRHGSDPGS
5-HT6, sequence (P50406 whole entry, species assumed): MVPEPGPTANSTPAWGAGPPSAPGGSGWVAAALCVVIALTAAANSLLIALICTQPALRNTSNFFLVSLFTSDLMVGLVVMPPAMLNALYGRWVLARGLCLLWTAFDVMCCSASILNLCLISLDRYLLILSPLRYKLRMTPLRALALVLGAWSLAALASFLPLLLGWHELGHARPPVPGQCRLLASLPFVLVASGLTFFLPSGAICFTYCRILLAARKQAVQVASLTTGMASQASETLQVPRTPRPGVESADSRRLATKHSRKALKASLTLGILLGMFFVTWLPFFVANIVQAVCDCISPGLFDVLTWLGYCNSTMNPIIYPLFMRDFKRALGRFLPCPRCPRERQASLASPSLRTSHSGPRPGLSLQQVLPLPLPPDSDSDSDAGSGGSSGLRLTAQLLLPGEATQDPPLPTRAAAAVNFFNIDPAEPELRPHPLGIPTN
5-HT5A, sequence (P47898 whole entry, species assumed): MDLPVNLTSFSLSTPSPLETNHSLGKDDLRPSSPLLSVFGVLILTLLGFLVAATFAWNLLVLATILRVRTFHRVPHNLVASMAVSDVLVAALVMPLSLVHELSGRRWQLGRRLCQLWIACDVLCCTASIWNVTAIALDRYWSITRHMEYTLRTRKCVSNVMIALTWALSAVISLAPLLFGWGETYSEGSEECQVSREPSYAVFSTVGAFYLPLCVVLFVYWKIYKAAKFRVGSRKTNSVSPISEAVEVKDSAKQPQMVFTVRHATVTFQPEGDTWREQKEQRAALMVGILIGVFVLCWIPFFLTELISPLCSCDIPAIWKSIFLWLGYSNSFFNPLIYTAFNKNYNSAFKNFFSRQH
5-HT7, sequence (P34969 whole entry, species assumed): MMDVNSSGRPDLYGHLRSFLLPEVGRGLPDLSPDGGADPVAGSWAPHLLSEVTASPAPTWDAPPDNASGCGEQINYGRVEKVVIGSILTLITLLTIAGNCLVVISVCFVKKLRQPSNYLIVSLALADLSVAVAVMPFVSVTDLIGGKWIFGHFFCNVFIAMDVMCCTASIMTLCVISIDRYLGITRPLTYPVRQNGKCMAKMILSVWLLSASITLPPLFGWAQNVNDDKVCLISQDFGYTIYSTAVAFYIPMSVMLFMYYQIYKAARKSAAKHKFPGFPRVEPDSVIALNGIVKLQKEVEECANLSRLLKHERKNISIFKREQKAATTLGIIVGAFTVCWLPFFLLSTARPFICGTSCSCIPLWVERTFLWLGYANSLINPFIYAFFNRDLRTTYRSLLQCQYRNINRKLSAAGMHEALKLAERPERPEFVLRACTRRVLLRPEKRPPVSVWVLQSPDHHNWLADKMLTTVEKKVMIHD
5-HT1E, sequence (P28566 whole entry, species assumed): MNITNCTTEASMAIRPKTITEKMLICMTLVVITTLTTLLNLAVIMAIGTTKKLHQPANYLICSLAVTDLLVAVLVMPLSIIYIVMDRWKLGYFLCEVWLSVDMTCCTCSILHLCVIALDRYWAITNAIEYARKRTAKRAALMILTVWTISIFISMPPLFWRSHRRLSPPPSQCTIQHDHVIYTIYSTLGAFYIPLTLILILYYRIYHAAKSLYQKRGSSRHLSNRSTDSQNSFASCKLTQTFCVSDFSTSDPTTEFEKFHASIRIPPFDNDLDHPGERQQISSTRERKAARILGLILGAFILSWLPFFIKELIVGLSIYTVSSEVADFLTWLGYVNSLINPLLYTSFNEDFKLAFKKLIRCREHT
5-HT1B, sequence (P28222 whole entry, species assumed): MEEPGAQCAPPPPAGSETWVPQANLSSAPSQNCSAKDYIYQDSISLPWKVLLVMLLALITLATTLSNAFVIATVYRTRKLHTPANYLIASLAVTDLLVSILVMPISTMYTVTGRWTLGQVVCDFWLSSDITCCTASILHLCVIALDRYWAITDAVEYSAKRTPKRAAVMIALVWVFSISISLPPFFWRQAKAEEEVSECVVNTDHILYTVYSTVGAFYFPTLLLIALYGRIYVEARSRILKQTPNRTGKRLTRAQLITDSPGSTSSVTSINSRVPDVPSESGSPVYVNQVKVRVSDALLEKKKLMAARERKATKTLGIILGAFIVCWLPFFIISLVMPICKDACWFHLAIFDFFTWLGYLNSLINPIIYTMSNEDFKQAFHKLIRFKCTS

For `CSc1ccccc1CNCCc1ccc(C#N)cc1O` [Cpd #109], the “5-HT7 EC50, nM” value (5-HT7; Table 3) was “Not active”, the “5-HT5A Eff, %” value (5-HT5A) was −133% and the EC50 (5-HT5A; read-out: 5-HT5A EC50) was 12300 nM. For the same molecule, the Kp ([1]; read-out: Brain Plasma AUC Ratio) was 8.39, the bioavailability ([1]; plasma, IM, read-out: IM f (%)) was 144% and the clearance ([1]; plasma) was 286 mL/min/kg. It also gave a half-life ([1]; plasma) of 36 min, a Vd ([1]; plasma) of 14 L/kg and an ED50 (mice; mice) of 2.69 mg/kg. The “central hallucinogenic (or psychedelic) effects compared with psilocybin” value (mice; conclusion from Tables 6-8) was “less central hallucinogenic (or psychedelic) effects than traditional psychedelic compounds such as psilocybin”, the “duration of psychedelic effect (HTR over time)” value (mice; mice, FIG. 4, different doses) was “less than 30 minutes” and the “5-HT1A Eff, %” value (5-HT1A) was 3%. The EC50 (5-HT1A; read-out: 5-HT1A EC50) was 4270 nM, the “5-HT1E Eff, %” value (5-HT1E; Table 3) was 12% and the EC50 (5-HT1E; Table 3, read-out: 5-HT1E EC50) was 814 nM. The IC50 [2] was 2900 nM, the “IC50 (hERG)/EC50 (5-HT2A) ratio” value [2] was 604 and the hepatocyte CLint [3] was 199 µL/min/1e6 cells. For the same molecule, the half-life [3] was 6.96 min, the CLint scaled [3] was 1370 mL/min/kg and the “Hepatic Extraction Ratio (E)” value (hepatocyte [4]) was 0.98. The “Predicted hepatic CL” value (hepatocyte [4]) was 30.22 mL/min/kg, the “5-HT1B EC50, nM” value (5-HT1B) was “Not active” and the bioavailability (plasma PK in dog; Dog, IM, read-out: IM f (%)) was 120%. The clearance (plasma PK in dog) was 39.7 mL/min/kg, the half-life (plasma PK in dog) was 78 min and the Vd (plasma PK in dog) was 4.33 L/kg. For the same molecule, the “5-HT6 Eff, %” value (5-HT6; Table 3) was 18%, the EC50 (5-HT6; Table 3, read-out: 5-HT6 EC50) was 5390 nM and the “plasma t1/2” value ([5]; healthy rat subjects (text b114)) was “less than an hour”. The bioavailability ([5]; plasma, rat, IM, read-out: IM f (%)) was 92.8%, the Kp ([5]; rat, read-out: Brain Plasma AUC Ratio) was 2.18 and the clearance ([5]; rat, plasma) was 53.4 mL/min/kg. It also gave a half-life ([5]; rat, plasma) of 126 min, a Vd ([5]; rat, plasma) of 9.37 L/kg and a hepatocyte CLint [6] of over 614 µL/min/1e6 cells. For the same molecule, the half-life [6] was under 2.26 min, the CLint scaled [6] was over 7250 mL/min/kg and the “Hepatic Extraction Ratio (E)” value (hepatocyte [7]) was over 0.99. For the same molecule, the “Predicted hepatic CL” value (hepatocyte [7]) was over 88.90 mL/min/kg, the EC50 (5-HT2C receptor; [8]) was 253 nM and the “5-HT2C BRET Eff %” value (5-HT2C receptor; Table 2) was 114%. For the same molecule, the “5-HT2C Eff, %” value (5-HT2C receptor; Table 3 panel) was 110% and the EC50 (5-HT2C receptor; [9]) was 225 nM.
For `COc1cc(C(F)(F)F)ccc1CCNCc1ccccc1O` [Cpd #93], the EC50 (5-HT7) was 0.5 nM, the “5-HT7 Eff, %” value (5-HT7; Table 3) was −12% and the “5-HT5A EC50, nM” value (5-HT5A) was “Not active”. The Kp ([1]; read-out: Brain/plasma Ratio) was 15.6, the clearance ([1]; plasma) was 197 mL/min/kg and the half-life ([1]; plasma) was 54 min. The Vd ([1]; plasma) was 15.1 L/kg, the ED50 (mice; mice) was 0.28 mg/kg and the “5-HT1A EC50, nM” value (5-HT1A) was “Not active”. The EC50 (5-HT1E) was 70100 nM, the “5-HT1E Eff, %” value (5-HT1E; Table 3) was 211% and the IC50 [2] was 620 nM. The “IC50 (hERG)/EC50 (5-HT2A) ratio” value [2] was 517, the hepatocyte CLint [3] was 337 µL/min/1e6 cells and the half-life [3] was 4.11 min. For the same molecule, the CLint scaled [3] was 2320 mL/min/kg, the “Predicted hepatic CL” value (hepatocyte [4]) was 30.49 mL/min/kg and the “5-HT1B EC50, nM” value (5-HT1B) was “Not active”. It also gave a clearance (plasma PK in dog) of 53.1 mL/min/kg, a half-life (plasma PK in dog) of 99.6 min and a Vd (plasma PK in dog) of 7.7 L/kg. The EC50 (5-HT6) was 0.6 nM, the “5-HT6 Eff, %” value (5-HT6; Table 3) was −12% and the Kp ([5]; rat, read-out: Brain/plasma Ratio) was 19.6. It also gave a clearance ([5]; rat, plasma) of 127 mL/min/kg, a half-life ([5]; rat, plasma) of 82.8 min and a Vd ([5]; rat, plasma) of 15.2 L/kg. For the same molecule, the hepatocyte CLint [6] was under 614 µL/min/1e6 cells, the half-life [6] was over 2.26 min and the CLint scaled [6] was under 7250 mL/min/kg. For the same molecule, the “Predicted hepatic CL” value (hepatocyte [7]) was under 88.90 mL/min/kg, the EC50 (5-HT2C receptor; [8]) was 1.1 nM and 1.3 nM and the “5-HT2C BRET Eff %” value (5-HT2C receptor; Table 2) was 105% and 103%. For the same molecule, the “5-HT2C Eff, %” value (5-HT2C receptor; Table 3 panel) was 99% and the EC50 (5-HT2C receptor; [9]) was 1.5 nM.

— US20250074871A1, “PHENETHYLAMINES AND METHODS OF PREPARATION THEREOF” (priority 2022, published 2025)
